Measurements: paper PMC8400257, “2-Phenoxy-3-Trichloromethylquinoxalines Are Antiplasmodial Derivatives with Activity against the Apicoplast of Plasmodium falciparum” (Pharmaceuticals, 2021)
“Also recorded” adds a separate entry of the source.

Legend:
P. falciparum apicoplast = assay: Immunofluorescence assay of apicoplast biogenesis on treated blood-stage parasites; assay type: cell-based, Plasmodium falciparum; details: 48 h, 0.2 µM
Protocol: To determine the impact of (3i) on apicoplast biogenesis, parasites were treated for 48 h with 0.2 µM of (3i) or 0.2 µM of (2i) (a control of (3i) for which the active CCl3 was replaced by a methyl CH3 group) and compared to untreated parasites by immunofluorescence assay. […] In order to determine if the apicoplast is the main target of (3i), we performed a growth assay over three life cycles to assess a potential delayed death effect, one of the major signature for compounds affecting apicoplast. […] The second interpretation could be that, unlike chloramphenicol or doxycycline, which cause a delayed death phenotype on Plasmodium, (3i) could act like fosmidomycin or actinonin and cause a rapid death phenotype.
Plasmodium falciparum blood stage parasites were maintained at 2% hematocrit in 1640 RPMI-HEPES, supplemented with 5% AlbuMAX II (GIBCO) and 0.25% gentamycin. Parasites were grown sealed Perspex chambers gassed with beta mix gas (1% O2, 5% CO2 and 94% N2) at 37 °C and maintained on 48-h cycles. Cultures were tightly synchronized at ring stage using sorbitol treatment (5% v/v) as previously described.
Prior to the treatment, parasites were synchronized using 5% sorbitol. After 48 h treatment ([…] or DMSO) parasites were fixed using 4% paraformaldehyde (PFA) and 0.0075% glutaraldehyde for 30 min at room temperature. […]

[1] = system: primary human hepatocytes; assay: Hepatotoxicity by count of DAPI-stained hepatocyte nuclei; assay type: cell-based; details: dose range up to 30 µM
Protocol: Finally, we studied the hepatotoxicity of (3i). This was carried out by quantification of DAPI-stained hepatocyte nuclei in culture wells. Generally, if a drug is hepatotoxic, it causes death and detachment of hepatocytes leading to less hepatocyte nuclei counts.
Upon immunostaining of parasites, the study plates were scanned using a CellInsight high-content screening platform equipped with the Studio HCS software (Thermo Fisher Scientific, Waltham, MA, USA). The details of analysis is provided elsewhere. The number of host hepatocyte nuclei per well was counted by the system as a measure of toxicity of 3i towards the liver cells.

[2] = system: P. falciparum ART-resistant strain F32-ART5; assay: Standard in vitro chemo-sensitivity assay, F32-ART5; assay type: cell-based; details: Plasmodium falciparum, F32, 48 h, read-out: Mean ± SEM EC50 values F32-ART5
Protocol: The Plasmodium falciparum ART-resistant strain F32-ART5 and its tween ART-sensitive strain F32-TEM [33, 41] were cultivated at 37 °C with 5% CO2 in human red blood cells (EFS, French Blood Bank) diluted to 2% hematocrit in RPMI-1640 medium (Biowest, Nuaillé, France) supplemented with 5% human serum (EFS, French Blood Bank), as previously reported.
The chemosensitivity assay was carried out in 96-well culture plates on synchronized ring-stage parasites at 1% parasitemia obtained after D-sorbitol treatment. The antiplasmodial activities were evaluated using the SYBR Green I method. Parasites were exposed for 48 h to a range of concentrations of the different tested compounds. Each drug concentration was tested in triplicates. Parasite pellets were then washed in 1× PBS prior to lysing red blood cells at −20 °C overnight. Then, the plates were thawed and 100 µL of each well were transferred into a black 96-well plate. Next, 100 µL per well of SYBR Green I (Thermo Fisher) diluted at a final concentration of 2× in lysis buffer (20 mM Tris base pH 7.5, 5 mM EDTA, 0.008% w/v saponin, 0.08% w/v Triton X-100) were added and left to incubate for 1 h at room temperature prior to reading the plates on BioTek FLx800 Microplate Fluorescence Reader (λexcitation = 485 nm, λemission = 528 nm). Relative EC50 values were determined using GraphPad Prism software.

O=[N+]([O-])c1ccc(Oc2nc3ccccc3nc2C(Cl)(Cl)Cl)cc1 [3i, 2-(4-Nitrophenoxy)-3-trichloromethylquinoxaline]
Effect on apicoplast biogenesis (immunofluorescence) (P. falciparum apicoplast): effect on the apicoplast biogenesis; also recorded: doted single non-elongated apicoplast at the mid-trophozoite life stage
Cytotoxicity on human hepatocytes (hepatocyte nuclei counts) [1]: no cytotoxicity on human hepatocytes; also recorded: no cytotoxicity was observed
EC50 [2]: 400 ± 105 nM
